Measured values published in publication PMC10979003, “Development and crystal structures of a potent second-generation dual degrader of BCL-2 and BCL-xL” (Nature Communications, 2024).

Legend:
HiBiT-BCL-xL = molecular target: T1, HiBiT-BCL-xL (Homo sapiens, UniProt Q07817); assay: HiBiT degradation assay, HiBiT knock-in BCL-xL HeLa cells; type: cell-based
T1 construct: endogenous in cells; host or cells: HeLa (ATCC CCL-2), CRISPR-Cas9 HiBiT knock-in clone
Procedure: (§1) The Alt-R CRISPR RNA (crRNA):Alt-R trans-activating crRNA (tracrRNA) duplexes for targeting BCL-xL or BCL-2 were prepared by mixing 0.5 nmol crRNA and 0.5 nmol tracrRNA in 25 μL of Nuclease-Free Duplex Buffer (Integrated DNA Technologies, IDT) by incubation at 95 °C for 5 min and cooling to RT. Single-stranded ultramer DNA oligonucleotides (ssODN) (IDT) were used as the homology directed repair (HDR) donor templates. The sequences of gRNAs and ssODN templates are listed in Supplementary Table 2. Ribonucleoprotein (RNP) complexes with recombinant Streptococcus pyogenes Cas9 protein (IDT) and crRNA:tracrRNA duplex were assembled by incubating 100 pmol of Cas9 and 120 pmol of gRNA for 10–20 min at room temperature. HeLa (2 × 10^5) cells were resuspended in 10 μL of Neon^TM transfection system buffer R from the Neon^TM transfection system 10 mL kit (Thermo Fisher), and the RNP complex along with 100 pmol ssODN template were electroporated into HeLa cells with the Neon^TM transfection system (Thermo Fisher). After electroporation, HeLa cells were transferred to a 12-well plate for culturing. Edited pooled cells were analyzed for HiBiT insertion by assaying for luminescence using Nano-Glo® HiBiT lytic detection system (Cat #N3040, Promega) in a Biotek’s Synergy Neo2 multimode plate reader (Biotek) 48–72 h after electroporation and single clones were selected by serial dilution.
(§2) HeLa HiBiT-BCL-xL and HeLa HiBiT-BCL-2 cells (2 × 10^4/well in 80 μL DMEM) were seeded into white 96-well tissue culture plates and incubated overnight at 37 °C, 5% CO2. For dose curve testing, the following day, serial diluted compounds were added into the medium and then plates were incubated at 37 °C, 5% CO2, for 6 h. For time course testing, in the following day, compounds with indicated concentrations were added into the medium at different time points. After treatment, the luminescence signals were measured using Nano-Glo® HiBiT lytic detection system (Cat #N3040, Promega) in a Biotek’s Synergy Neo2 multimode plate reader (Biotek).

HiBiT-BCL-2 = molecular target: T2, HiBiT-BCL-2 (Homo sapiens, UniProt P10415); assay: HiBiT degradation assay, HiBiT knock-in BCL-2 HeLa cells; type: cell-based; conditions: for Time to degrade 50% of BCL-2: 100 nM compound
T2 construct: endogenous in cells; host or cells: HeLa (ATCC CCL-2), CRISPR-Cas9 HiBiT knock-in clone
Procedure: as §1, §2

HeLa cells = assay: DIA proteomics in HeLa cells; type: cell-based, human; conditions: for Off-target effects (two proteomic analyses): TMT (Jurkat) and DIA (HeLa) proteomics
Excerpt: Given the somewhat inconclusive nature of the TMT results, we made additional efforts to characterize the on-target and off-target effects of our BCL-xL and BCL-2 dual PROTACs using a different proteomics analysis technique, i.e. the Data-Independent Acquisition (DIA) proteomics approach. This approach can avoid the limitation of TMT-labeling deficiency for some proteins/peptides. Specifically, we conducted DIA proteomics profiling using HeLa cells because these cells are primarily dependent on MCL-1 for survival and thus resistant to apoptosis after BCL-xL and BCL-2 degradation. To our delight, we were able to identify over 7200 proteins, including both BCL-xL and BCL-2 (Supplementary Fig. 10d), using this method.
Cells were lysed in buffer containing 5% SDS/50 mM triethylammonium bicarbonate (TEAB) in the presence of protease and phosphatase inhibitors (Halt; Thermo Scientific) and nuclease (Pierce™ Universal Nuclease for Cell Lysis; Thermo Scientific). Aliquots corresponding to 100 µg protein (EZQ™ Protein Quantitation Kit; Thermo Scientific) were reduced with tris(2-carboxyethyl)phosphine hydrochloride (TCEP), alkylated in the dark with iodoacetamide and applied to S-Traps (mini; Protifi) for tryptic digestion (sequencing grade; Promega) in 50 mM triethylammonium bicarbonate (TEAB). Peptides were eluted from the S-Traps with 0.2% formic acid in 50% aqueous acetonitrile and quantified using Pierce™ Quantitative Fluorometric Peptide Assay (Thermo Scientific). Data-independent acquisition mass spectrometry (DIA-MS) was conducted on a Thermo Scientific Orbitrap Exploris 480 mass spectrometer. […] A pool was made of the three control (DMSO) samples, and 2-µg peptide aliquots were analyzed using gas-phase fractionation and 4-m/z windows (30k resolution for precursor and product ion scans) to create an empirically-corrected DIA chromatogram library[72] by searching against a Prosit-generated predicted spectral library[73] based on the UniProt_Human_ref 9606_20220216 protein sequence database (20,588 sequences; 11,394,277 residues). […]

T1 sequence (Q07817 whole entry): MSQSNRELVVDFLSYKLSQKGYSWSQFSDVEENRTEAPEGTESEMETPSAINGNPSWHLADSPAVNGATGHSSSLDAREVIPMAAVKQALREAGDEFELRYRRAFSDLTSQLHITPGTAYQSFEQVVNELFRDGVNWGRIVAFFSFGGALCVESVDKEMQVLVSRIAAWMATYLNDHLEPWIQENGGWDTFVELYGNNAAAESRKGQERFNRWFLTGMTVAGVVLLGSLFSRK
T2 sequence (P10415 whole entry): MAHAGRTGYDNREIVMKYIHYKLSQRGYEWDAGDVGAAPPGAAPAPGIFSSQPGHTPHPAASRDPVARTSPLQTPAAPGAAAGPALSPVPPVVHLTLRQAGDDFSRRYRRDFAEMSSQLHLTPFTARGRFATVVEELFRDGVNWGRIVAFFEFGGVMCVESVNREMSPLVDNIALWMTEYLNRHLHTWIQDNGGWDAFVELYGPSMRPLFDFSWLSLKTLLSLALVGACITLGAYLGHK

Row | Compound | Time to degrade 50% of BCL-xL (HiBiT-BCL-xL; 10 nM compound) | Time to degrade 50% of BCL-xL (HiBiT-BCL-xL; 100 nM compound) | Potency for inducing degradation of BCL-xL (comparison) (HiBiT-BCL-xL; 6 h treatment) | Time to degrade 50% of BCL-2 (HiBiT-BCL-2) | Potency for inducing degradation of BCL-2 (comparison) (HiBiT-BCL-2; 6 h treatment) | Degradation of BCL-xL and BCL-2 by DIA proteomics (comparison) (HeLa cells; HeLa cells) | Off-target effects (two proteomic analyses) (HeLa cells)
1 | Cc1ncsc1-c1ccc([C@H](C)NC(=O)[C@@H]2C[C@@H](O)CN2C(=O)[C@@H](NC(=O)CN2CCN(CC(=O)N3CCN(C[C@]4(C)CCC(c5ccc(Cl)cc5)=C(CN5CCN(c6ccc(C(=O)NS(=O)(=O)c7ccc(N[C@H](CCN8C[C@@H]9C[C@H]8CO9)CSc8ccccc8)c(S(=O)(=O)C(F)(F)F)c7)cc6)CC5)C4)CC3)CC2)C(C)(C)C)cc1 [WH244] | ~ 219 min | ~ 45 min | more potent than 753b | about 250 min | more potent than 753b | superior efficacy in the degradation of both proteins | limited off-target effects
2 | Cc1ncsc1-c1ccc(C(C)NC(=O)C2CC(O)CN2C(=O)C(NC(=O)CCCCCCC(=O)N2CCN(CC3(C)CCC(c4ccc(Cl)cc4)=C(CN4CCN(c5ccc(C(=O)NS(=O)(=O)c6ccc(NC(CCN7CCOCC7)CSc7ccccc7)c(S(=O)(=O)C(F)(F)F)c6)cc5)CC4)C3)CC2)C(C)(C)C)cc1 (centres unmarked) [753b] | > 480 min | ~ 84 min | – | > 480 min | – | – | limited off-target effects
